Data from BindingDB's records for doi:10.1016/s0960-894x(01)00331-6 (Dupont Pharmaceuticals, 2001).

Biological target: T1, Gag-Pol polyprotein [588-1027]/[588-1147] (Human immunodeficiency virus 1, UniProt P04585)
T1 construct: 588-1027; 588-1147
Experiment: HIV-1 RT Assay
Details: pH 8.2; 37 °C
Source text: The IC50 of reverse transcriptase is the concentration that inhibits 50% of recombinant HIV-1 RT RNA-directed DNA polymerase activity in vitro.

SMILES | IC50 [µM]
CC(C)=CCO[C@H]1C(=O)Nc2ccc(Cl)cc2[C@@]1(C#CC1CC1)C(F)(F)F [(3R,4R)-6-chloro-4-(2-cyclopropylethynyl)-3-[(3-methylbut-2-en-1-yl)oxy]-4-(trifluoromethyl)-1,2,3,4-tetrahydroquinolin-2-one] | > 2
COC(=O)N[C@H]1C(=O)Nc2ccc(Cl)cc2[C@@]1(C#CC1CC1)C(F)(F)F [methyl N-[(3R,4R)-6-chloro-4-(2-cyclopropylethynyl)-2-oxo-4-(trifluoromethyl)-1,2,3,4-tetrahydroquinolin-3-yl]carbamate] | > 2
CC(=O)N[C@H]1C(=O)Nc2ccc(Cl)cc2[C@@]1(C#CC1CC1)C(F)(F)F [N-[(3R,4R)-6-chloro-4-(2-cyclopropylethynyl)-2-oxo-4-(trifluoromethyl)-1,2,3,4-tetrahydroquinolin-3-yl]acetamide] | > 2
O=C1Nc2ccc(Cl)cc2[C@@](C#CC2CC2)(C(F)(F)F)[C@H]1NCc1ccccc1 [(3R,4R)-3-(benzylamino)-6-chloro-4-(2-cyclopropylethynyl)-4-(trifluoromethyl)-1,2,3,4-tetrahydroquinolin-2-one] | > 2
O=C1Nc2ccc(Cl)cc2[C@@](C#CC2CC2)(C(F)(F)F)[C@H]1O [(3R,4R)-6-chloro-4-(2-cyclopropylethynyl)-3-hydroxy-4-(trifluoromethyl)-1,2,3,4-tetrahydroquinolin-2-one] | > 2
